From US10513511B2, “Aqueous suspension formulation comprising 4-(4-(4-(((3R,5R)-5-((1H-1,2,4-triazol-1-yl)methyl)-5-(2,4-difluoro-phenyl)tetrahydrofuran-3-yl)methoxy)-3-methylphenyl) or a pharmaceutically acceptable salt thereof” (PULMOCIDE LIMITED, priority 2015, dated 2019)

How the values were obtained:
[1] = system: Aspergillus fumigatus (azole resistant strain: TR34/L98H); assay: Aspergillus fumigatus infection of human alveoli bilayers (transwells), azole resistant strain; assay type: cell-based; settings: for MIC50 / MIC90: Aspergillus fumigatus, 24 h; for MIC50: read-out: MIC50, invasion into the lower chamber in human alveoli bilayers; for MIC90: read-out: MIC90, invasion into the lower chamber in human alveoli bilayers
Protocol: (§1) In vitro models of human alveoli, consisting of a bilayer of human alveolar epithelial cells and endothelial cells, were prepared as previously described (Hope et al., 2007). This system allows administration of a test compound to the upper (“air” space) and/or lower (“systemic” space) compartments. This flexibility has been exploited to explore the effects of combination treatment by dosing Compound (I) to the upper chamber and posaconazole or other anti-fungal agents to the lower chamber. Primary human pulmonary artery endothelial cells (HPAEC) were harvested and diluted to 10^6 cells/mL in EGM-2 media (Lonza, Basel, Switzerland). Transwells were inverted and the cell suspension (100 μL/well) applied to the base of each transwell. The inverted transwells were incubated at RT within a flow hood for 2 hr after which they were turned upright. EGM-2 media was added to the lower (700 μL/well) and upper (100 μL/well) compartments and the transwells were incubated for 48 hr (37° C., 5% CO2). The EGM-2 media in the lower compartment was then replaced with fresh EGM-2 media. A549 cells were harvested and diluted to 5×10^5 cells/mL in 10% EBM, then added to the upper compartment (100 μL/well) of all transwells and the plates incubated for 72 hr (37° C., 5% CO2). Conidia of itraconazole sensitive Aspergillus fumigatus s (NCPF2010) and itraconazole resistant (TR34-L98H) strains were cultured separately in Sabouraud dextrose agar for 3 days. A stock conidia suspension of either strain was prepared from a Sabouraud dextrose agar culture by washing with PBS-tween (10 mL; PBS containing 0.05% Tween-20, 100 U/mL Penicillin and 100 U/mL Streptomycin). The conidia count was assessed using a Neubauer haemocytometer and adjusted to 10^6 conidia/mL with PBS. A working stock of conidia was prepared in EBM (10^5 conidia/mL) immediately prior to use.
(§2) Test and reference compounds (or neat DMSO as the vehicle) were added to the appropriate wells of 24-well plates (3 μL/well containing 600 μL of 2% FBS EBM) for lower compartment treatment and to 96-well plates (1 μL/well containing 200 μL of 2% FBS EBM) for the treatment of the upper compartment, to provide a final DMSO concentration of 0.5%. The media in the upper compartment was aspirated and that containing the appropriate test and reference compounds, or vehicle, were added (100 μL/well). Transwells were then transferred into the 24-well plate containing the test and reference compounds or DMSO vehicle. After incubation for 1 hr (35° C., 5% CO2) the conidia suspension (10 μL/well) was added to the upper compartment of each transwell. Plates were then incubated for 24 hr (35° C., 5% CO2). Supernatants from each compartment (5 μL/compartment) were collected and stored (−20° C.). Media was replaced daily after collection of the supernatants and all wells were treated with test and reference compounds or with DMSO, as described above, for 3 days. Samples continued to be collected until fungal growth was visible by eye in all transwells. The levels of GM in the supernatant in lower compartment were then measured by ELISA (BioRad, CA, USA) as an index of Aspergillus fumigatus invasion.

[2] = Body weight loss of immunocompromised, neutropenic mice caused by A. fumigatus infection; assay type: in vivo, A/J mice; settings: days 1, 2 and 3 (therapeutic); for Body weight loss Day 2 / Body weight loss Day 3: vs weight on day 1
Protocol: Aspergillus fumigatus (ATCC 13073 [strain: NIH 5233], American Type Culture Collection, Manassas, Va., USA) was grown on Malt agar (Nissui Pharmaceutical, Tokyo, Japan) plates for 6-7 days at RT (24±1° C.). Spores were aseptically dislodged from the agar plates and suspended in sterile distilled water with 0.05% Tween 80 and 0.1% agar. On the day of infection, spore counts were assessed by haemocytometer and the inoculum was adjusted to obtain a concentration of 1.67×10^8 spores mL^−1 of physiological saline. […] On day 0, animals were infected with the spore suspension (30 μL intra-nasally).
Test substances were administered intra-nasally (35 μL of a suspension (0.0032-10.0 mg/mL of drug substance in physiological saline) once daily, on days 1, 2 and 3 only (thereby representing a therapeutic treatment regimen). For extended prophylactic treatment, test compounds (35 μL of a suspension of 0.0032 or 0.016 mg/mL in physiological saline) were administered intra-nasally once daily for seven days. One group was dosed 30 min before infection on day 0 but not subsequently, while a second group was further dosed on days 1, 2 and 3 after infection. The effects of these treatment paradigms were compared with those obtained when treatment was restricted in other groups to either one day or 30 min before inoculation and then on days 1, 2 and 3 post infection in both cases. In a final group, dosing was limited still further with animals dosed twice, one day and 30 min before infection only.
Animal body weights were monitored daily and at 6 hr after the last dose of drug was administered on day 3, the animals were anesthetised, the tracheas cannulated and BALF blood and lung tissue were collected. The levels of IL-6 and TNFα in serum were determined using Quantikine® mouse IL-6 or TNF-α ELISA kit (R&D systems, Inc., Minneapolis, Minn., USA) respectively. Aspergillus GM in serum was determination using Platelia GM-EIA kits (Bio-Rad Laboratories, Redmond, Wash., USA). Cut-off index (COI) was calculated by the formula: Cut-off index=OD in sample/OD in cut-off control provided in kit. For tissue fungal load assays, 100 mg of lung tissue was removed aseptically and homogenized in 0.2 mL of 0.1% agar in sterile distilled water. Serially diluted lung homogenates were plated on Malt agar plates (50 μL/plate), and incubated at 24±1° C. for 72 to 96 h. The colonies of A. fumigatus on each plate were counted and the fungal titre presented herein as CFUs per gram of lung tissue.

[3] = system: Aspergillus fumigatus (azole susceptible strain: NCPF2010); assay: Aspergillus fumigatus infection of human alveoli bilayers (transwells), azole susceptible strain; assay type: cell-based; settings: for MIC50 / MIC90: Aspergillus fumigatus, NCPF2010, 24 h; for MIC50: read-out: MIC50, invasion into the lower chamber in human alveoli bilayers; for MIC90: read-out: MIC90, invasion into the lower chamber in human alveoli bilayers; for GM Levels in the Lower Chamber, OD value / GM Levels in the Lower Chamber, % inhibition vs.control / DFB50: Days taken to reach a fungal burden of 50% of control: Compound (Ia) 0.1 μg/mL upper chamber, posaconazole 0.01 μg/mL lower chamber, combination of both
Protocol: as §1, §2

[4] = Compound (Ia) 0.0032 mg/mL intranasal
[5] = Compound (Ia) 0.016 mg/mL intranasal
[6] = Compound (Ia) 0.08 mg/mL intranasal
[7] = Day 1, TR34-L98H, Compound 0.3 μg/mL upper chamber, posaconazole 0.1 μg/mL lower chamber, combination of both
[8] = Day 2, TR34-L98H, Compound 0.3 μg/mL upper chamber, posaconazole 0.1 μg/mL lower chamber, combination of both
[9] = Day 3, TR34-L98H, Compound 0.3 μg/mL upper chamber, posaconazole 0.1 μg/mL lower chamber, combination of both
[10] = Posaconazole 0.4 mg/mL intranasal
[11] = Posaconazole 2 mg/mL intranasal
[12] = Posaconazole 10 mg/mL intranasal

| Structure (SMILES) | MIC50 [1] [µM] | MIC90 [1] [µM] | MIC50 [3] [µM] | MIC90 [3] [µM] | GM Levels in the Lower Chamber, OD value ([3]; Day 0, NCPF2010) [OD] | GM Levels in the Lower Chamber, % inhibition vs.control ([3]; Day 1, NCPF2010) [%] | GM Levels in the Lower Chamber, OD value ([3]; Day 1, NCPF2010) [OD] | GM Levels in the Lower Chamber, % inhibition vs.control ([3]; Day 2, NCPF2010) [%] | GM Levels in the Lower Chamber, OD value ([3]; Day 2, NCPF2010) [OD] | GM Levels in the Lower Chamber, % inhibition vs.control ([3]; Day 3, NCPF2010) [%] | GM Levels in the Lower Chamber, OD value ([3]; Day 3, NCPF2010) [OD] | GM Levels in the Lower Chamber, % inhibition vs.control ([3]; Day 4, NCPF2010) [%] | GM Levels in the Lower Chamber, OD value ([3]; Day 4, NCPF2010) [OD] | GM Levels in the Lower Chamber, % inhibition vs.control ([3]; Day 5, NCPF2010) [%] | GM Levels in the Lower Chamber, OD value ([3]; Day 5, NCPF2010) [OD] | GM Levels in the Lower Chamber, % inhibition vs.control ([3]; Day 6, NCPF2010) [%] | GM Levels in the Lower Chamber, OD value ([3]; Day 6, NCPF2010) [OD] | GM Levels in the Lower Chamber, % inhibition vs.control ([3]; Day 7, NCPF2010) [%] | GM Levels in the Lower Chamber, OD value ([3]; Day 7, NCPF2010) [OD] | DFB50: Days taken to reach a fungal burden of 50% of control ([3]; NCPF2010) [days] | also measured |
| --- | --- | --- | --- | --- | --- | --- | --- | --- | --- | --- | --- | --- | --- | --- | --- | --- | --- | --- | --- | --- | --- |
| Cc1cc(N2CCN(c3ccc(C(=O)N[C@H]4CCCC[C@@H]4O)cc3)CC2)ccc1OC[C@@H]1CO[C@@](Cn2cncn2)(c2ccc(F)cc2F)C1 [Compound (Ia), 4-(4-(4-(((3R,5R)-5-((1H-1,2,4-triazol-1-yl)methyl)-5-(2,4-difluorophenyl)tetrahydrofuran-3-yl)methoxy)-3-methylphenyl)piperazin-1-yl)-N-((1S,2S)-2-hydroxycyclohexyl) benzamide] | 0.261 | 0.417 | 0.154 | 0.185 | 0 | 66 | 0.24 | 1.5 | 1.71 | 8.6 | 1.67 | −1.6 | 1.68 | 0.2 | 1.63 | −1.8 | 1.57 | 7.1 | 1.54 | 1.04 | maximum inhibition of GM levels in the bottom chamber ([1]; TR34/L98H, administration to the apical chamber, 1 day post infection): exceeding 90%; % Inhibition of weight loss Day 2 [2, 4]: 24%; % Inhibition of weight loss Day 3 [2, 4]: 9%; Body weight loss Day 2 [2, 4]: 4.2 ± 1.2%; Body weight loss Day 3 [2, 4]: 9.7 ± 2.1%; % Inhibition of weight loss Day 2 [2, 5]: 35%; % Inhibition of weight loss Day 3 [2, 5]: 9%; Body weight loss Day 2 [2, 5]: 3.6 ± 1.2%; Body weight loss Day 3 [2, 5]: 9.7 ± 3.2%; % Inhibition of weight loss Day 2 [2, 6]: 49%; % Inhibition of weight loss Day 3 [2, 6]: 22%; Body weight loss Day 2 [2, 6]: 2.8 ± 2.4%; Body weight loss Day 3 [2, 6]: 8.3 ± 6.7%; maximum inhibition of GM levels in the bottom chamber ([3]; NCPF2010, administration to the apical chamber, 1 day post infection): exceeding 90% |
| CC[C@@H]([C@H](C)O)n1ncn(-c2ccc(N3CCN(c4ccc(OC[C@@H]5CO[C@@](Cn6cncn6)(c6ccc(F)cc6F)C5)cc4)CC3)cc2)c1=O [Posaconazole, reference compound] | 0.315 | 0.793 | 0.155 | 0.212 | 0 | 89 | 0.074 | 1.5 | 1.71 | 7.1 | 1.70 | −3.0 | 1.70 | −3.6 | 1.69 | −3.0 | 1.59 | 2.5 | 1.62 | 1.16 | GM Levels in the Lower Chamber, OD value ([1]; Day 0, TR34-L98H, Compound 0.3 μg/mL upper chamber, posaconazole 0.1 μg/mL lower chamber, combination of both): 0 OD; GM Levels in the Lower Chamber, % inhibition vs. vehicle control [1, 7]: 98%; GM Levels in the Lower Chamber, OD value [1, 7]: 0.016 OD; GM Levels in the Lower Chamber, % inhibition vs. vehicle control [1, 8]: 35%; GM Levels in the Lower Chamber, OD value [1, 8]: 0.73 OD; GM Levels in the Lower Chamber, % inhibition vs. vehicle control [1, 9]: −10%; GM Levels in the Lower Chamber, OD value [1, 9]: 1.16 OD; DFB50: Days taken to reach a fungal burden of 50% of control ([1]; TR34-L98H, Compound 0.3 μg/mL upper chamber, posaconazole 0.1 μg/mL lower chamber, combination of both): 1.94 days; % Inhibition of weight loss Day 2 [2, 10]: −15%; % Inhibition of weight loss Day 3 [2, 10]: 1%; Body weight loss Day 2 [2, 10]: 5.4 ± 0.4%; Body weight loss Day 3 [2, 10]: 9.2 ± 4.0%; % Inhibition of weight loss Day 2 [2, 11]: 17%; % Inhibition of weight loss Day 3 [2, 11]: 24%; Body weight loss Day 2 [2, 11]: 3.9 ± 1.3%; Body weight loss Day 3 [2, 11]: 7.1 ± 1.9%; % Inhibition of weight loss Day 2 [2, 12]: 17%; % Inhibition of weight loss Day 3 [2, 12]: 54%; Body weight loss Day 2 [2, 12]: 3.9 ± 1.3%; Body weight loss Day 3 [2, 12]: 4.3 ± 1.8% |
